Laboratory results taken from PMC6153434, “Bystander Effects of Hypoxia-Activated Prodrugs: Agent-Based Modeling Using Three Dimensional Cell Cultures” (Frontiers in Pharmacology, 2018).

Key:
[1] = system: POR-G activators and PORko-R targets (HCT116)
HCT116 and HCT116/POR#6 = settings: cited from earlier work
[2] = system: high-POR 'activator' HCT116 cell lines (POR-R, POR-G); format: cell-based; settings: monolayer cultures
[3] = system: POR-null 'target' HCT116 cell lines (PORko-R, PORko-G); assay: Monolayer clonogenic assay under anoxia (targets); format: cell-based; settings: monolayer cultures, anoxic exposure 1 h (used for ABM analysis, Figure 9A)
Description: Log-phase cells were trypsinized and cell pellets, collected by centrifugation, were transferred to a Bactron anaerobic chamber (Sheldon Manufacturing Inc., Cornelius, OR, United States) under 3–5% H2/5% CO2/balance N2, <100 ppm O2, with a palladium/activated carbon catalyst to maintain anoxia. (The term “anoxia” is used throughout to refer to the gas phase, without necessarily implying complete anoxia in monolayers or spheroids as discussed below.) Cells were resuspended and seeded at 10^5 cells/0.15 mL in 96-well plates using medium and plates equilibrated in the chamber for 3 days to ensure complete deoxygenation. After incubation at 37 °C for 2 h for cell attachment, cells were exposed to drugs for 1 h, removed from the chamber, trypsinized, counted with a Coulter counter (model Z2; Beckman Coulter^TM, Indianapolis, IN, United States) and plated in 6-well plates. After 10 days, plates were stained with methylene blue (2 g/L in EtOH:H2O, 1:1 v/v) and colonies with more than 50 cells were counted. Plating efficiency (PE) was calculated as number of colonies/number of cells plated, and surviving fraction (SF) was determined as PE(drug treated)/PE(control).

[4] = system: POR-null 'target' HCT116 cells in spheroids; format: cell-based
[5] = system: high-POR 'activator' HCT116 cells in spheroids; assay: Spheroid clonogenic assay under anoxia (activators in co-culture spheroids); format: cell-based; settings: spheroids comprising 100% activators, anoxic exposure 1 h (Figure 9B)
[6] = published value, PR104H+M model, ref Foehrenbacher et al., 2013
[7] = published value, ref Foehrenbacher et al., 2013

CS(=O)(=O)OCCN(CCBr)c1c(C(=O)NCCO)cc([N+](=O)[O-])cc1[N+](=O)[O-] [PR104A]
Activator F2, proportion of O2-dependent rate of metabolism of the drug in activators [1]: 0.977 | Activator Kmet,0, rate constant for the maximum rate of metabolism in activator cells under anoxia [1]: 2 min⁻¹ | Hill parameter n [1]: 2 | KO2, O2 concentration for half-maximum prodrug activation [1]: 0.126 | Kc, intrinsic cytotoxic potency [1]: 0 M⁻¹ s⁻¹ | Kin, rate constant for transfer from the extracellular to the intracellular compartment [1]: 3 min⁻¹ | Kout, rate constant for transfer from the intracellular to the extracellular compartment [1]: 0.5 min⁻¹ | Target F2, proportion of O2-dependent rate of metabolism of the drug in targets [1]: 0.977 | Target Kmet,0, rate constants for the maximum rate of metabolism in target cells under anoxia [1]: 0.03 min⁻¹ | Half-life, non-enzymatic loss in culture medium (HCT116 and HCT116/POR#6; 37 °C, published value, PR104H+M model, ref Foehrenbacher et al., 2013): 10.2 h | Activator Kmet,0, rate constant for the maximum rate of metabolism in activator cells under anoxia (HCT116 and HCT116/POR#6; [6]): 1.08 min⁻¹ | Kc, intrinsic cytotoxic potency (HCT116 and HCT116/POR#6; [6]): 0 M⁻¹ s⁻¹ | Kin, rate constant for transfer from the extracellular to the intracellular compartment (HCT116 and HCT116/POR#6; [6]): 3 min⁻¹ | Kout, rate constant for transfer from the intracellular to the extracellular compartment (HCT116 and HCT116/POR#6; [6]): 0.5 min⁻¹ | Target Kmet,0, rate constants for the maximum rate of metabolism in target cells under anoxia (HCT116 and HCT116/POR#6; [6]): 0.054 min⁻¹ | Activator F2, proportion of O2-dependent rate of metabolism of the drug in activators (HCT116 and HCT116/POR#6; [7]): 0.977 | Hill parameter n (HCT116 and HCT116/POR#6; [7]): 1 | Target F2, proportion of O2-dependent rate of metabolism of the drug in targets (HCT116 and HCT116/POR#6; [7]): 0.977 | KO2, O2 concentration for half-maximum prodrug activation (HCT116 and HCT116/POR#6; published value, ref Hicks et al., 2007): 0.126 | KO2 (sensitivity of PR104A metabolism to oxygen) (HCT116 and HCT116/POR#6; ref Hicks et al., 2007): 0.126 µM | PR-104A concentration giving 90% kill ([2]; activators, anoxic exposure 1 h (used for ABM analysis, Figure 9A)): 1 µM | sensitivity of activator cell lines (clonogenic survival) ([2]; 1 h under anoxia, relative to targets): marked increases in the sensitivity | PR-104A concentration giving 90% kill [3]: 17 µM | half-life (physchem): 10.2 h | killing of target cells as proportion of activators increases ([4]; co-culture spheroids 0, 10, 50 or 100% activators, 1 h under anoxia): markedly increased with increasing proportion of POR-G activator cells | bystander effect ([4]; spheroid co-cultures with ABM simulation, anoxia): clearly demonstrated the existence of a bystander effect | concentration giving 90% kill in spheroids ([4]; spheroids comprising 100% targets, anoxic exposure 1 h (Figure 9B)): 20 µM | concentration giving 90% kill in spheroids [5]: 5 µM
